{
  "source": "patent EP0116431B1",
  "about": "“Aromatase inhibiting pyrimidine derivatives” (ELI LILLY AND COMPANY, priority 1983, dated 1984)",
  "key": {"[1]": {"tested_on": "DMBA-induced Mammary Tumor", "assay": "DMBA-induced mammary tumor inhibition", "type": "in vivo, Sprague-Dawley rats", "settings": "for Mean Tumor Area (mm^2) Start: start of test", "method": "Mammary tumors were produced in female Sprague-Dawley rats which were 50-60 days old by the gavage administration of 20 mg of 7,12-dimethylbenz[a]anthracene (DMBA). About six weeks after DMBA administration, the mammary glands were palpated at weekly intervals for the appearance of tumors. Whenever one or more tumors appeared and were measurable in an animal, that animal was selected for experimentation. […] Each control and test group contained 8 animals. The test compound was administered either mixed into the food at a concentration of 300 ppm (corresponding to an appropriate daily dose of 30 mg/kg) or the compounds were dissolved or suspended in corn oil and administered once daily by gavage. Every experiment included a group of control rats having tumors and were either given food without the compound admixed or corn oil vehicle by gavage, depending on how the test compound was administered. […] The area of each tumor was calculated by multiplying the shortest and longest diameters of the tumor. The treatment and measurement of animals continued for 4-8 weeks at which time the final areas of the tumors were determined. For each compound (and control) at each dose level, the change in the mean tumor area was determined. The mean change was analyzed for its significance using Dunnett's t-test."}, "synthesis of estrogens": {"tested_on": "synthesis of estrogens", "settings": "seven days, testosterone propionate-treated immature female rats"}, "[2]": {"settings": "300 ppm in the diet, 5 weeks test"}, "[3]": {"settings": "300 ppm in feed (approximately 30 mg/kg/day)"}},
  "note": "Like-named read-outs stand apart in the source and are kept apart here.",
  "data": [
    {"smiles": "Clc1ccc(C(c2ccc(Cl)cc2)c2cncnc2)cc1", "note": "[compound 27, 5-bis(4-chlorophenyl)methylpyrimidine]", "values": [
      {"measurement": "Mean Tumor Area (mm^2) Finish", "setting": "[1]; 300 ppm in the diet, 5 weeks", "value": 154, "unit": "mm^2"},
      {"measurement": "Mean Tumor Area (mm^2) Start", "setting": "[1]; [2]", "value": 78.6, "unit": "mm^2"},
      {"measurement": "Mean Uterine Weight (mg)", "setting": "synthesis of estrogens; 30 ppm in feed (approximately 3 mg/kg/day)", "value": "92.25^+ mg"},
      {"measurement": "Mean Uterine Weight (mg)", "setting": "synthesis of estrogens; [3]", "value": "80.20^+ mg"}
    ]},
    {"smiles": "OC(c1ccc(Cl)cc1)(c1ccc(Cl)cc1)c1cncnc1", "note": "[compound 29, α,α-bis(4-chlorophenyl)-5-pyrimidinemethanol]", "values": [
      {"measurement": "Mean Tumor Area (mm^2) Finish", "setting": "[1]; 1 mg/kg daily by gavage, 5 weeks", "value": "210^+ mm^2"},
      {"measurement": "Mean Tumor Area (mm^2) Start", "setting": "[1]; 1 mg/kg daily by gavage, 5 weeks test", "value": 66, "unit": "mm^2"},
      {"measurement": "Mean Tumor Area (mm^2) Finish", "setting": "[1]; 5 mg/kg daily by gavage, 4 weeks", "value": 123.5, "unit": "mm^2"},
      {"measurement": "Mean Tumor Area (mm^2) Start", "setting": "[1]; 5 mg/kg daily by gavage, 4 weeks test", "value": 56.3, "unit": "mm^2"},
      {"measurement": "Mean Tumor Area (mm^2) Finish", "setting": "[1]; 7.5 mg/kg daily by gavage, 5 weeks", "value": "159^+ mm^2"},
      {"measurement": "Mean Tumor Area (mm^2) Start", "setting": "[1]; 7.5 mg/kg daily by gavage, 5 weeks test", "value": 63, "unit": "mm^2"},
      {"measurement": "Mean Tumor Area (mm^2) Finish", "setting": "[1]; 15 mg/kg daily by gavage, 5 weeks", "value": "9^+ mm^2"},
      {"measurement": "Mean Tumor Area (mm^2) Start", "setting": "[1]; 15 mg/kg daily by gavage, 5 weeks test", "value": 50, "unit": "mm^2"},
      {"measurement": "Mean Tumor Area (mm^2) Finish", "setting": "[1]; 30 mg/kg daily by gavage, 4 weeks", "value": 34.3, "unit": "mm^2"},
      {"measurement": "Mean Tumor Area (mm^2) Start", "setting": "[1]; 30 mg/kg daily by gavage, 4 weeks test", "value": 71.5, "unit": "mm^2"},
      {"measurement": "Mean Tumor Area (mm^2) Finish", "setting": "[1]; 30 mg/kg daily by gavage, 5 weeks", "value": "146^+ mm^2"},
      {"measurement": "Mean Tumor Area (mm^2) Start", "setting": "[1]; 30 mg/kg daily by gavage, 5 weeks test", "value": 69, "unit": "mm^2"},
      {"measurement": "Mean Tumor Area (mm^2) Finish", "setting": "[1]; 300 ppm in the diet, 5 weeks", "value": "10.0^+ mm^2"},
      {"measurement": "Mean Tumor Area (mm^2) Start", "setting": "[1]; [2]", "value": 60.7, "unit": "mm^2"},
      {"measurement": "Mean Tumor Area (mm^2) Finish", "setting": "[1]; 300 ppm in the diet, 8 weeks", "value": "355^+ mm^2"},
      {"measurement": "Mean Tumor Area (mm^2) Start", "setting": "[1]; 300 ppm in the diet, 8 weeks test", "value": 160.4, "unit": "mm^2"},
      {"measurement": "Mean Uterine Weight (mg)", "setting": "synthesis of estrogens; [3]", "value": "75.00^+ mg"}
    ]}
  ]
}
